Assay results published in patent US20150141360A1, “BIOCIDAL COMPOSITIONS” (CEBEC GROUP LTD., priority 2012, published 2015).
≈ marks a conversion by molar mass, not a printed value. Where two headings read alike, the source gives them in different places.

How the values were obtained:
[1] = system: isolated strains from food production environments; format: cell-based
Excerpt: In the early stages of these investigations, efforts were concentrated on two zoonotic pathogens namely verocytoxigenic Escherichia coli O157 and Salmonella species, along with the recently described powdered infant formula pathogen Cronobacter species. […] Some of the genera appeared to be more susceptible compared with others, as in the case of Cronobacter. Attempts to develop tolerant phenotypes were marginally successful and where this was generated, the phenotype was unstable. […] Highly-tolerant mutant phenotypes were obtained and these are currently being studied in detail, using a dedicated technical pipeline, described above. It was decided that it would be of interest to include the food-borne zoonotic pathogen Campylobacter and to evaluate its susceptibility/tolerance to the same panel compounds. Once again, it could be shown that Campylobacter was susceptible. However, as the panel of compounds used could be described as synthetic, the availability of C-Activ-12 presented the opportunity to re-evaluate the responses of these bacteria to this natural biocide. […] In the current project proposal, this inhibitory effect will be characterised in detail, to provide a means of understanding the mode of action. […] C-Activ-12 is a novel natural biocide. The formulation ingredients are FDA GRAS approved comprising organic acids and natural fruit extracted polyphenols. The broad spectrum activity of the formulation resulted it its inclusion in a University College Dublin Government funded independent study under the FIRM (see hereunder) research program. The program studies the effectiveness of products used to manage micro-organisms/pathogens prevalent in the food sector, comparing effectiveness & testing against isolated strains. […] The Irish Department of Agriculture and Food's Food Institutional Research Measure (FIRM) is funded under the National Development Plan 2007-2013. FIRM is the primary national funding mechanism for food research in third level colleges and research institutes. FIRM is a public good competitive programme whereby multi-disciplinary teams from two or more institutions usually carry out the research projects. Research outputs are communicated to industry by a dedicated dissemination team known as RELAY. FIRM aims to develop public good technologies that will underpin a competitive, innovative and sustainable food manufacturing and marketing sector. The programme is creating a base of knowledge and expertise in generic technologies that will support a modern, consumer-focused industry and build Ireland's capacity for R&D. A key output of the FIRM is highly trained young researchers at PhD and postdoctoral level, with specialist skills particularly relevant to the Irish food sector. The following pages provide an overview of the effectiveness of CeBeC's C-Activ-12 in killing micro-organisms. Standard testing protocols were first applied by AIT CBBR under British & European Food Grade Sanitiser Standard BS EN 1276, requiring a log 5 reduction from a log 7 to a log 2. The activity of C-Activ-12 highlighted a greater than log 6 reduction from a log 8. Based on the results under BS EN 1276, UCD added the product under the FIRM study whereby pathogens were isolated from food production environments. The rationale behind this approach is that most standards rely on ATCC & NCTC cultures which are more than often easier to kill than isolates.

[2] = system: Escherichia coli ATCC 25922; assay: Preliminary evaluation of bactericidal efficacy (5 min treatment, colony counts); format: cell-based; parameters: key: TNTC=To Numerous To Count; conditions: 5 min exposure to 0.5% v/v
Description: The compositions are suitable for use in the food and food processing industry. For rapid screening, a preliminary method allowed selection of the most efficient formulations. […] The composition of each formulation (0.5% v/v) was used blind to ensure no bias. The formulation was reviewed after each set of tests to improve the products composition and efficiency. Prototype formulations were prepared under aseptic conditions.
Typically, an overnight culture of bacteria strains were diluted 1:1000 in sterile hard water to a final density of approx 1×10^6 bacteria. A 1 ml volume of bacteria was treated for 5 minutes at room temperature with 500 μl of antimicrobial solutions. […] The treatment was ceased by the addition of 200 μl of the neutralising solution. All strains were serially diluted to 10^−5 in sterile peptone water and 100 μl were plated in duplicate on the appropriate plate and then incubated at 37° C. for 24 hours except Campylobacter jejuni and Enterococcus hirae. The appropriate controls were included in each test e.g. an unopened agar plate and a set of serially diluted, untreated bacteria. After mesophilic aerobic incubation (or mesophilic microaerophilic incubation for C. jejuni), the number of colonies was enumerated and compared to the untreated controls to determine if a Log order reduction was obtained.

[3] = 74 strains, unheaded column beside Stdev (presumably mean)

SMILES | MBC [1, 3] | MIC [1, 3] | MBC Range ([1]; range over 74 strains) | MIC Range ([1]; range over 74 strains) | E. coli bacterial colony counts (average of two replicates), Bacterial Dilution 10^−1 [2] | E. coli bacterial colony counts (average of two replicates), Bacterial Dilution 10^−2 [2] | E. coli bacterial colony counts (average of two replicates), Bacterial Dilution 10^−3 [2] | E. coli bacterial colony counts (average of two replicates), Bacterial Dilution 10^−4 [2] | E. coli bacterial colony counts (average of two replicates), Bacterial Dilution 10^−5 [2] | E. coli bacterial colony counts (average of two replicates), Bacterial Dilution Neat [2] | also measured
O=C(O)c1ccccc1 [Benzoic Acid] | – | – | – | – | – | – | – | – | – | – | MBC [1]: 920.79 µg/mL (≈ 7540 µM); MBC Range [1]: 165 to 1320 µg/mL; MIC [1]: 810.51 µg/mL (≈ 6640 µM); MIC Range [1]: 247.5 to 1320 µg/mL
O=C(O)/C=C/c1ccccc1 [Cininamic Acid] | 119.40 µg/mL (≈ 806 µM) | 95.12 µg/mL (≈ 642 µM) | 23.44 to 421.88 µg/mL | 23.44 to 140.65 µg/mL | – | – | – | – | – | – | –
O=C(O)CC(O)C(=O)O (stereo not shown) [E3, MALIC ACID] | – | – | – | – | TNTC | TNTC | TNTC | TNTC | >61 | TNTC | –
O=C(O)CC(O)(CC(=O)O)C(=O)O [E4, CITRIC ACID] | – | – | – | – | TNTC | TNTC | >159 | TNTC | 10 | TNTC | –
O=C1O[C@H]([C@@H](O)CO)C(O)=C1O [E5, ASCORBIC ACID] | – | – | – | – | TNTC | TNTC | TNTC | TNTC | TNTC | TNTC | –
C=CCc1ccc(O)c(OC)c1 [Eugenol] | 0.99 ul/ml | 0.86 ul/ml | 0.25-2 ul/ml | 0.25-2 ul/ml | – | – | – | – | – | – | –
CC(C)=CCC/C(C)=C/CO [Geraniol] | 9.46 ul/ml | 8.29 ul/ml | 0.94-22.5 ul/ml | 0.94-15^ ul/ml | – | – | – | – | – | – | –
Cc1ccc(C(C)C)c(O)c1 [Thymol] | 121.38 µg/mL (≈ 808 µM) | 85.73 µg/mL (≈ 571 µM) | 4.92 to 315 µg/mL | 19.69-315^ ug/ml | – | – | – | – | – | – | –
O=C/C=C/c1ccccc1 [Trans-cinnaldeheyde] | 0.50 ul/ml | 0.43 ul/ml | 0.05-0.8 ul/ml | 0.2-0.8 ul/ml | – | – | – | – | – | – | –
CC1=CC[C@@H](C(C)(C)O)CC1 [a-Terpineol] | 2.84 ul/ml | 2.43 ul/ml | 0.42-7.59 ul/ml | 0.53-7.59 ul/ml | – | – | – | – | – | – | –
